Laboratory results: patent US11116212B2, “Carbonyl containing compounds for controlling and repelling Cimicidae populations” (SemiosBio Technologies Inc., priority 2011, dated 2021)
Structures can show the parent of a compound that is named as a salt. Where two headings read alike, the source gives them in different places.

Tested on: bed bugs, Cimex lectularius
Assay: Bed bug repellency bioassay, glass tube olfactometer arena
Format: in vivo
Details: for pest or weed control at 5 % strength / pest or weed control at 1 % / pest or weed control at 25 % strength: Cimex lectularius; for pest or weed control at 1 %: 10 uL, 1% v/v in hexane; for % Repellency, At least One Average >50%: best average over 3 replicates for a single time period
Protocol: Per individual bioassay, 10 adult or late instar nymph bed bugs, Cimex lectularius, of mixed sex. Bed bugs sourced from wild, field populations and tested within 2 weeks of capture. Subjects were tested one time, only.
(ii) Olfactometer consisting of a glass tube. Tube ends were plugged to prevent egress of test subjects. Test substrates were placed at opposite ends of the tube. Tube Olfactometer includes a port in the centre for introduction of test subjects. Dimensions of the tube were 15.2 mm in diameter by 304.8 mm long.
Compounds were either purchased from commercial sources or synthesized using conventional synthetic organic chemistry techniques (see, for example, Examples 5 to 7). Some compounds (014, 058 and 080) were tested in duplicate (one version from commercial sources and one synthesized) and the best performance is reported in the Tables below. Of the tested compounds reported in the Tables below, the following compounds were synthesized: 006, 010, 017, 018, 040, 041 to 043, 045, 046, 048, 049, 058, 067 to 075, 079, 080 to 082, 089 and 090.
Test compounds consisted of a control and treatment. The treatment consisted of a test compound mixed as a percentage w/w in a suitable solvent. The test compound solvent itself was used as a control. Solvents used were hexane, hexane:methanol, or dichloromethane:methanol.
(i) Gauze cut to a standard size and folded upon itself to provide harbourage for test subjects.
(iii) Absorbent polymer “aroma” beads that were given sufficient time to fully absorb test compounds and control solvents.
In the case of gauze and filter paper substrates, control solvents and test mixtures of known concentrations and volumes were dispensed directly onto substrates using a pipette. For polymer beads, beads were mixed w/w with solvent or test compound in a small glass jar. The jars were occasionally agitated to facilitate soaking of the beads.
Immediately after the substrates were infused with test compounds and control solvents, test subjects were introduced to the centre of the selected observation arena. […] Only subjects that were in close contact with the treatment or control substrates were recorded. Subjects elsewhere in the arena were not included in repellency calculations. Percentage repellency was calculated based on a modification of Abbott's formula to account for negative repellency (attraction). Specifically: IF(C>=T,(C−T)/C*100,(T−C)/T*−100)
where C is number of test subjects in contact with control substrate and T is number of test subjects in contact with treatment substrate.
All average repellency results reported in the table are based on 3 replicates for each reported trial, with each trial involving at least 3 observation periods. The observation periods were short-term (30 min), medium-term (1-2 hours), and long-term (24-48 hours). The “overall average” reported in the table represents the average for 3 replicates for 3 observation periods. […]
To determine whether compounds could be combined in the repellent compositions, compounds 14 and 35 were each tested at a concentration of 5% (w/w), and as a combination comprising each compound at a concentration of 2.5% (w/w). The formulations were tested as described in Example 1 using the olfactometer configuration.

[1] = gauze, 50 uL, 5% w/v in hexane, average of 3 replicates x 3 observation periods, read-out: % Repellency (% R), Overall Average
[2] = gauze, average of 3 replicates x 3 observation periods, read-out: % Repellency (% R), Overall Average
[3] = gauze, best single observation (one repetition, one time), read-out: % Repellency, At least One Time >50%
[4] = observation period T1, gauze, read-out: % Repellency T1 (average of 3 repetitions)
[5] = observation period T2, gauze, read-out: % Repellency T2 (average of 3 repetitions)
[6] = observation period T3, gauze, read-out: % Repellency T3 (average of 3 repetitions)
[7] = observation period T1, gauze, 50 uL, 5% w/v in hexane, read-out: % Repellency T1 (average of 3 repetitions)
[8] = observation period T2, gauze, 50 uL, 5% w/v in hexane, read-out: % Repellency T2 (average of 3 repetitions)
[9] = observation period T3, gauze, 50 uL, 5% w/v in hexane, read-out: % Repellency T3 (average of 3 repetitions)
[10] = beads, 20 uL, 25% w/w in hexane, average of 3 replicates x 3 observation periods, read-out: % Repellency (% R), Overall Average
[11] = observation period T1, beads, 20 uL, 25% w/w in hexane, read-out: % Repellency T1 (average of 3 repetitions)
[12] = observation period T2, beads, 20 uL, 25% w/w in hexane, read-out: % Repellency T2 (average of 3 repetitions)
[13] = observation period T3, beads, 20 uL, 25% w/w in hexane, read-out: % Repellency T3 (average of 3 repetitions)
[14] = beads, 20 uL, 25% w/w in hexane
[15] = gauze, 50 uL, 5% w/v in hexane, best single observation (one repetition, one time), read-out: % Repellency, At least One Time >50%

CC(=O)/C=C/C=O [Compound 001, 4-oxo-2-pentenal]
pest or weed control at 5 % strength [1]: 57%

CCCC(=O)/C=C/C=O [Compound 003, 4-oxo-2-heptenal]
pest or weed control at 5 % strength [1]: > 80%

CCC(=O)/C=C/CO [Compound 006, (E)-6-hydroxyhex-4-en-3-one]
pest or weed control at 1 % [2]: -49%
pest or weed control at 1 % [3]: 57%
pest or weed control at 1 % [4]: -62%
pest or weed control at 1 % [5]: -74%
pest or weed control at 1 % [6]: -11%

CCC(=O)OCC=O [Compound 008, 2-oxoethyl propionate]
pest or weed control at 5 % strength [1]: 27%
pest or weed control at 5 % strength [7]: 12%
pest or weed control at 5 % strength [8]: 53%
pest or weed control at 5 % strength [9]: 17%
% Repellency, At least One Average >50% (gauze, 50 uL, 5% w/v in hexane): 53%

CCC(=O)COC=O [Compound 010, 2-oxobutyl formate]
pest or weed control at 25 % strength [10]: 45%
pest or weed control at 25 % strength [11]: 85%
pest or weed control at 25 % strength [12]: 42%
pest or weed control at 25 % strength [13]: 8%
% Repellency, At least One Average >50% [14]: 85%

CCC(=O)c1ccco1 [Compound 014, 1-(furan-2-yl)propan-1-one]
pest or weed control at 25 % strength [10]: > 80%
% R (Overall Average) (Example 2, single compound at 5% (w/w)): 71%

C=CCOC(=O)CC [Compound 017, allyl propionate]
pest or weed control at 1 % [2]: 4%
pest or weed control at 1 % [3]: 90%
pest or weed control at 1 % [4]: -20%
pest or weed control at 1 % [5]: 13%
pest or weed control at 1 % [6]: 18%

CCC(=O)NCCO [Compound 018, N-(2-hydroxyethyl) propionamide]
pest or weed control at 25 % strength [10]: 50%
pest or weed control at 25 % strength [11]: 69%
pest or weed control at 25 % strength [12]: 69%
pest or weed control at 25 % strength [13]: 11%
% Repellency, At least One Average >50% [14]: 69%

CCCCCCCCCCCC(C)=O [Compound 024, Methyl undecyl ketone (2-tridecanone)]
pest or weed control at 5 % strength [1]: > 80%

CC(=O)C(C)C(C)C(C)=O (stereo not drawn) [Compound 025, 3,4-dimethyl-2,5-hexanedione]
pest or weed control at 25 % strength [10]: 77%

CCCC(=O)CC [Compound 026, 3-Hexanone]
pest or weed control at 5 % strength [1]: 15%
pest or weed control at 5 % strength [15]: 100%
pest or weed control at 5 % strength [7]: 44%
pest or weed control at 5 % strength [8]: 37%
pest or weed control at 5 % strength [9]: -36%

CCC(=O)C(=O)CC [Compound 027, 3,4-Hexanedione]
pest or weed control at 5 % strength (read-out: % Repellency (% R), Overall Average, gauze, 50 uL, 5% w/v in hexane, average of 3 replicates x 3 observation periods): 75%

CCCCCCC(=O)CC [Compound 028, 3-Nonanone]
pest or weed control at 1 % [2]: -10%
pest or weed control at 1 % [3]: 67%
pest or weed control at 1 % [4]: -11%
pest or weed control at 1 % [5]: -11%
pest or weed control at 1 % [6]: -6%

C=COC(=O)CC [Compound 031, Vinyl propionate]
pest or weed control at 5 % strength [1]: 8%
pest or weed control at 5 % strength [15]: 100%
pest or weed control at 5 % strength [7]: 45%
pest or weed control at 5 % strength [8]: 45%
pest or weed control at 5 % strength [9]: -67%

CCC(=O)NC [Compound 032, N-Methylpropionamide]
pest or weed control at 25 % strength (read-out: % Repellency (% R), Overall Average, beads, 20 uL, 25% w/w in hexane, average of 3 replicates x 3 observation periods): -9%
pest or weed control at 25 % strength (read-out: % Repellency T1 (average of 3 repetitions), observation period T1, beads, 20 uL, 25% w/w in hexane): 39%
pest or weed control at 25 % strength (read-out: % Repellency T2 (average of 3 repetitions), observation period T2, beads, 20 uL, 25% w/w in hexane): -40%
pest or weed control at 25 % strength (read-out: % Repellency T3 (average of 3 repetitions), observation period T3, beads, 20 uL, 25% w/w in hexane): -25%
pest or weed control at 25 % strength (read-out: % Repellency, At least One Time >50%, beads, 20 uL, 25% w/w in hexane, best single observation (one repetition, one time)): 100%

CCC(=O)CC(=O)OC [Compound 034, Methyl 3-oxovalerate]
pest or weed control at 5 % strength [1]: 27%
pest or weed control at 5 % strength [7]: 81%
pest or weed control at 5 % strength [8]: 94%
pest or weed control at 5 % strength [9]: -94%
% Repellency, At least One Average >50% (gauze, 50 uL, 5% w/v in hexane): 94%

CCCCCC=O [Compound 037, hexanal]
pest or weed control at 5 % strength [1]: 79%

CCC/C=C/C=O [Compound 038, trans-2-hexen-1-al]
pest or weed control at 5 % strength [1]: 72%

CCCCC/C=C/C=O [Compound 039, trans-2-octenal]
pest or weed control at 5 % strength [1]: 78%

CCC(=O)/C=C/c1ccco1 [Compound 040, (E)-1-(furan-2-yl)pent-1-en-3-one]
pest or weed control at 5 % strength [1]: > 80%

CCCCC(=O)/C=C/CO [Compound 041, (E)-1-hydroxyoct-2-en-4-one]
pest or weed control at 5 % strength [1]: > 80%

CCC(=O)/C=C/C(C)O (stereo not drawn) [Compound 042, (E)-6-hydroxyhept-4-en-3-one]
pest or weed control at 5 % strength [1]: 76%

C=CCNC(=O)CC [Compound 043, N-allylpropionamide]
pest or weed control at 5 % strength [1]: 59%

CC(=O)CC/C=C(\C)CCC=C(C)C [Compound 044, 6,10-dimethyl-5,9-undecadien-2-one]
pest or weed control at 5 % strength [1]: > 80%

CCC(=O)NCC(OC)OC [Compound 045, N-(2,2-dimethoxyethyl) propionamide]
pest or weed control at 5 % strength [1]: 70%

CCCC(=O)/C=C/CO [Compound 046, (E)-1-hydroxyhept-2-en-4-one]
pest or weed control at 5 % strength [1]: 65%

CCC(=O)/C(C)=C/c1ccco1 [Compound 048, (E)-1-(furan-2-yl)-2-methylpent-1-en-3-one]
pest or weed control at 5 % strength [1]: > 80%

CCC(=O)N(C)CC(OC)OC [Compound 049, N-(2,2-dimethoxyethyl)-N-methylpropionamide]
pest or weed control at 1 % [2]: 78%

CCCC(=O)CCC [Compound 051, 4-heptanone]
pest or weed control at 25 % strength [10]: > 80%

COC(=O)CCC=O [Compound 052, Methyl 4-oxobutanoate]
pest or weed control at 25 % strength [10]: -17%
pest or weed control at 25 % strength (beads, 20 uL, 25% w/w in hexane, best single observation (one repetition, one time), read-out: % Repellency, At least One Time >50%): 100%
pest or weed control at 25 % strength [11]: 11%
pest or weed control at 25 % strength [12]: -50%
pest or weed control at 25 % strength [13]: -11%

CN(C)C(=O)CCC(=O)O [Compound 053, 4-(Dimethylamino)-4-Oxobutanoic acid]
pest or weed control at 1 % [2]: 52%

CCC(=O)C(=O)OC [Compound 054, Methyl-2-oxobutanoate]
pest or weed control at 1 % [2]: > 80%

COC(=O)/C=C/C(C)=O [Compound 056, Methyl trans-4-oxo-2-pentenoate]
pest or weed control at 5 % strength [1]: 53%

CCOC(=O)/C=C(\C)C=O [Compound 057, Ethyl 3-methyl-4-oxocrotonate]
pest or weed control at 25 % strength [10]: > 80%

COC(=O)/C=C/C(=O)OC [Compound 058, dimethyl fumarate]
pest or weed control at 5 % strength [1]: > 80%

CCC(=O)OCC1CCCO1 (stereo not drawn) [Compound 060, Tetrahydro furfuryl propionate]
pest or weed control at 25 % strength [10]: 78%
